Broadly, the IC50 is the concentration at which inhibition is half-maximal. A low value points to greater potency.

A value given as a limit tells only on which side of the number the result lay.

The values that follow come from ChEMBL document CHEMBL4007392, “Modulating Mineralocorticoid Receptor with Non-steroidal Antagonists. New Opportunities for the Development of Potent and Selective Ligands without Off-Target Side Effects” (J Med Chem, 2017).

The first assay has as its target T1, Mineralocorticoid receptor (Rattus norvegicus, UniProt P22199).
T1 sequence (P22199 whole entry): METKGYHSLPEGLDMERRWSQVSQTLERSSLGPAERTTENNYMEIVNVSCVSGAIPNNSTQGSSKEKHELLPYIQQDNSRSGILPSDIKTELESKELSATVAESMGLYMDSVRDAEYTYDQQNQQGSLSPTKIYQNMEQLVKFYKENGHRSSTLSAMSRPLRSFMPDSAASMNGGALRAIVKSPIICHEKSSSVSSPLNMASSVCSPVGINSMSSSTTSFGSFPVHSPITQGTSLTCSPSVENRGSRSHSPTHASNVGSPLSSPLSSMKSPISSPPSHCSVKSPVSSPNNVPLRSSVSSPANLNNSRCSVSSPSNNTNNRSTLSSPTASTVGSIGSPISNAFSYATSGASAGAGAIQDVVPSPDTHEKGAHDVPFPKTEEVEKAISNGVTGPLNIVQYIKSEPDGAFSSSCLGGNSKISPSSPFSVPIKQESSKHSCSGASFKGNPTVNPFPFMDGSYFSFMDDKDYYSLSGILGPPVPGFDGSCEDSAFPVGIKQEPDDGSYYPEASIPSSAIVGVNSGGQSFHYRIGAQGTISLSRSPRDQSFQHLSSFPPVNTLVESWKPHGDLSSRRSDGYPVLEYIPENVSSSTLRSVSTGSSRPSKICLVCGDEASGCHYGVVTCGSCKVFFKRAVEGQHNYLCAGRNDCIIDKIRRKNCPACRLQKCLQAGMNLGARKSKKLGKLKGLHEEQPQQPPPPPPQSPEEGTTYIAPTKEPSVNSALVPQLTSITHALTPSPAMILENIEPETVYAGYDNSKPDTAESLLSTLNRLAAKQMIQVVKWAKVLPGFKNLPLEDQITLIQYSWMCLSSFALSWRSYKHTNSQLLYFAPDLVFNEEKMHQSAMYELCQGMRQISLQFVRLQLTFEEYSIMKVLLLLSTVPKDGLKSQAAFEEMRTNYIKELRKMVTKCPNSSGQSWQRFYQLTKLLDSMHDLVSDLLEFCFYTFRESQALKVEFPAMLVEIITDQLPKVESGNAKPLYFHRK
The assay can be described thus: Displacement of [3H]-Aldosterone from MR in Sprague-Dawley rat kidney cytosolic fraction measured after overnight incubation by liquid scintillation counting method. A general note: In a radioligand displacement assay an active substance lowers the binding of a labelled ligand.
`CC1(C)N=C(c2ccc(Cl)cc2)c2ccc(NS(C)(=O)=O)cc2O1` displayed an IC50 below 500 nM.

Take `Cc1cc(Cl)ccc1C1=CC(C)(C)Oc2cc(NS(C)(=O)=O)ccc21`: the IC50 was below 500 nM.

Consider `Cc1cc(NS(C)(=O)=O)cc2c1C(c1ccc(F)cc1)=NC(C)(C)O2`, for which the IC50 is below 500 nM.

`CC1=C(c2ccc(F)cc2)c2ccc(NS(C)(=O)=O)cc2OC1(C)C`: the 50% inhibitory concentration (IC50) is below 500 nM.

The target of a further assay is Mineralocorticoid receptor (Homo sapiens, UniProt P08235, C808S). The assay can be described thus: Binding affinity to N-terminal 6His-GST-tagged human MR LBD (727 to 984 residues) harboring C808S mutation expressed in Escherichia coli BL21DE3/corticosterone complex by AlphaScreen assay. On the technique in general: In Alpha technology, singlet oxygen from a donor bead excites a nearby acceptor bead.
Chain of Mineralocorticoid receptor (Homo sapiens, UniProt P08235, C808S) (P08235 whole entry C808S, the tested form may be a part): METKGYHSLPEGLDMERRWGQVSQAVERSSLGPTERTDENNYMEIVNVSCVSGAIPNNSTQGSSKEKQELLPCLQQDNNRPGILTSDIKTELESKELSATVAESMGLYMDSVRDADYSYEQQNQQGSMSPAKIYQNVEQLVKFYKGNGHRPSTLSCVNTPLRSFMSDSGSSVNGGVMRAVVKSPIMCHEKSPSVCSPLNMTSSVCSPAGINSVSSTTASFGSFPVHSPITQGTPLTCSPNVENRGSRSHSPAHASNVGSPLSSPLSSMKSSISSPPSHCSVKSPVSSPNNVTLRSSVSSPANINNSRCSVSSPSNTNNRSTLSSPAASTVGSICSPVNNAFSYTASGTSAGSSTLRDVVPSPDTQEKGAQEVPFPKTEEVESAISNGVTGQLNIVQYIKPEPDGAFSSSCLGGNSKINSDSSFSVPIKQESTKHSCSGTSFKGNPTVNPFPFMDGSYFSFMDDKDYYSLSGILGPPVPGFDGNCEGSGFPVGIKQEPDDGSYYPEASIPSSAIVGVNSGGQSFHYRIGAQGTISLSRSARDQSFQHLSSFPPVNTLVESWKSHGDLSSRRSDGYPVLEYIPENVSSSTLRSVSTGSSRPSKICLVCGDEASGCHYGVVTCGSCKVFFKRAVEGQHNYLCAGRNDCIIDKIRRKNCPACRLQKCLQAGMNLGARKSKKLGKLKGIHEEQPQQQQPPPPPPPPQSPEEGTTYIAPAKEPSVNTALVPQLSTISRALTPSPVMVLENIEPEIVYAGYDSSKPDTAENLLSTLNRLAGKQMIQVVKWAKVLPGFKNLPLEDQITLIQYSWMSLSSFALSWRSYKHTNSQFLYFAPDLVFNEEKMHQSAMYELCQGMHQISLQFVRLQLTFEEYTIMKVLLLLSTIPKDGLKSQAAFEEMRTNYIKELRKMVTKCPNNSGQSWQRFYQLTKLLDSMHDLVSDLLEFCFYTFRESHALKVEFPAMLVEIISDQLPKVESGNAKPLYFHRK
Consider H-QEKHRILHKLLQNGN-OH, for which the IC50 is 4600 nM.

H-KENNALLRYLLDRDD-OH yielded an IC50 of 1400 nM.

For `CC(C)C[C@H](NC(=O)[C@H](CO)NC(=O)[C@H](CCCCN)NC(=O)[C@H](CCC(N)=O)NC(=O)[C@H](CCC(N)=O)NC(=O)[C@H](C)N)C(=O)N[C@@H](CC(C)C)C(=O)N[C@@H](CCC(N)=O)C(=O)N[C@@H](CCC(N)=O)C(=O)N[C@@H](CC(C)C)C(=O)N[C@@H](CC(C)C)C(=O)N[C@H](C(=O)N[C@@H](CCC(=O)O)C(=O)O)[C@@H](C)O`, the concentration for half-maximal inhibition (IC50) is 900 nM.

The compound `CC(C)C[C@H](NC(=O)[C@H](CC(C)C)NC(=O)[C@H](CCC(=O)O)NC(=O)[C@H](CO)NC(=O)[C@H](CS)NC(=O)[C@@H]1CCCN1C(=O)[C@H](CCCNC(=N)N)NC(=O)[C@@H](N)CCCNC(=N)N)C(=O)N[C@@H](CCCCN)C(=O)N[C@@H](Cc1ccc(O)cc1)C(=O)N[C@@H](CC(C)C)C(=O)N[C@H](C(=O)N[C@H](C(=O)N[C@@H](CC(N)=O)C(=O)N[C@@H](CC(=O)O)C(=O)O)[C@H](C)O)[C@H](C)O` displayed an IC50 of 1100 nM.
